{
  "source": "patent US9839632B2",
  "about": "“Methods and compositions using 4-amino-2-(2,6-dioxo-piperidine-3-yl)-isoindoline-1,3-dione for treatment and management of central nervous system cancers” (CELGENE CORPORATION, priority 2013, dated 2017)",
  "key": {"[1]": {"system": "primary murine microglia cells cocultured with Raji lymphoma cells", "assay": "Polarization of primary murine microglia cocultured with Raji lymphoma cells with or without primary murine NK cells", "assay_type": "cell-based", "conditions": "for M2 polarization of microglia cells (FXIIIA, pSTAT6): coculture with Raji lymphoma cells, without NK cells; for polarization status of microglia cells (iNOS, pSTAT1): triple culture with Raji lymphoma cells and primary murine NK cells, 10 ug/ml 48 hours", "method": "Treatments: In experiments in which IL-4 was used to induce M2 polarization of macrophages, cells were treated with IL-4 (20 ng/ml) for 48 hours followed by treatment with 4-amino-2-(2,6-dioxo-piperidine-3-yl)-isoindoline-1,3-dione (10 ug/ml) or DMSO control for 48 hours. In triple cell culture experiments with lymphoma cells, macrophages, and NK cells, the treatment was with either DMSO or 4-amino-2-(2,6-dioxo-piperidine-3-yl)-isoindoline-1,3-dione (10 ug/ml) for 48 hours.\nImmunofluorescence for analysis of macrophage polarization in cell culture experiments: Live cells were fixed in 10% formalin for 30 minutes at room temperature followed by permeabilization with PBS-0.2% Triton X-100 for 2 min. After blocking with PBS-5% goat serum-0.02% Triton X-100 for 30 minutes at 37° C., the cells were incubated overnight at 4° C. with rat monoclonal F4/80 antibody (for primary microglia cells, 1:200 Abcam), rat monoclonal CD11b (for U937, 1:200 Biolegend), rabbit polyclonal Ym1 antibody (for primary microglia cells and primary peritoneal macrophages, 1:200, Stemcell Technologies, Vancouver, Canada), rabbit polyclonal FXIII A antibody (for U937, 1:200, Abcam), mouse monoclonal p-STAT1 antibody (1:200, Abcam), rabbit polyclonal p-STAT6 antibody (1:200, Abcam) or rabbit iNOS antibody (1:200, Calbiochem). After washing, cells were incubated with the Alexa Fluor 594 Goat anti-Rat IgG secondary antibody (1:1000, Life Technologies) and FITC Donkey anti-rabbit IgG secondary antibody (1:1000, Life technology) or FITC Goat anti-mouse IgG secondary antibody (1:1000, Sigma) at 37° C. for 45 minutes. Finally, Vectashield H-1200 mounting medium with DAPI (Vector Laboratories) was used to stain the nuclei. Images were obtained on a Zeiss LSM 510 META confocal microscope."}, "[2]": {"system": "primary murine microglia cells", "assay": "Phagocytosis assay, primary murine microglia cells", "assay_type": "cell-based", "conditions": "3 or 10 ug/ml, 48 hours, P<0.05 vs control", "method": "(§1) Phagocytosis assay: The impact of 4-amino-2-(2,6-dioxo-piperidine-3-yl)-isoindoline-1,3-dione on the phagocytic activity of macrophages was assessed in primary microglial cells and human monocyte cells (U937). The cells were cultured in complete medium for 4 days. They were then harvested and resuspended in Opti-MEM medium at 10^6 cells/ml and seeded in a 96 well plate at 100,000 viable cells/well. The experimental wells were treated with 4-amino-2-(2,6-dioxo-piperidine-3-yl)-isoindoline-1,3-dione 3 or 10 ug/ml. After 48 hours of treatment, the culture medium was quickly replaced with 100 ul of pHrodo BioParticles suspension (Life technologies and the cells were incubated in the suspension at 37° C. for 2-3 hours. Following incubation, the plates were scanned at 550 nm/600 nm (excitation/emission) using fluorescence plate reader. The fluorescence activity reflects the phagocytic activity of the macrophages. The impact of 4-amino-2-(2,6-dioxo-piperidine-3-yl)-isoindoline-1,3-dione treatment (% effect) was calculated as a fraction of the phagocytic activity in the positive control wells. Wan, C. P.; et al., J. Immunol. Methods, 1993, 162, pp. 1-7."}, "[3]": {"system": "OCI-LY10 B lymphoma cells", "assay": "Orthotopic murine CNS lymphoma model, OCI-LY10 (bioluminescence tumor growth, survival)", "assay_type": "in vivo, athymic mice", "conditions": "for median survival: OCI-LY10 model; for in vivo tumor growth (luminescence signal) vs control: P<0.05, n=8", "method": "Animal and housing: Female athymic mice (8-10 weeks old and weighing 20-25 g at the beginning of the study) were purchased from Harlan laboratories. They were housed in a temperature-controlled sterilized room (23±2° C.) with a 12-h light/dark cycle and free access to food and water throughout the study. Animal use was approved by Mayo Foundation Institutional Animal Use and Care Committee and was in accordance with NIH Guide for the Care and Use of Laboratory Animals.\nOrthotopic murine CNS lymphoma models: Two murine CNS lymphoma models were created by intracerebral injection of 2.5×10^4 luciferase-transfected Raji or 1×10^5 luciferase-transfected OCI-LY10 B lymphoma cells in athymic mice under anesthesia using a stereotactic platform. Eight-week-old athymic mice underwent minimum 7-day acclimation/quarantine prior to surgery. Surgery was performed in a laminar flow hood under sterile conditions. Tylenol 300 mg/kg PO was given for analgesia 24 hours before the surgery continuing 48 hours postoperatively. Anesthesia was achieved by inhalation of 1-2% isoflurane. After the mouse became well anesthetized, it was placed in the Kopf stereotactic instrument. A small amount of BNP antibiotic cream (a mixture of Bacitracin, Neomycin and Polymyxin) was smeared on its eyes to prevent infection and corneal damage during surgery. A strip of soft fabric was placed over the mouse's body and tail to prevent excessive heat loss during surgery. The scalp area was cleaned with a 2% solution of Betadine and dried with cotton tipped applicator. A midline sagittal incision was made in the scalp. A small burr hole was drilled in the left skull with a surgical drill (Kopf) or a Dremel drill according to the coordinates (AP: 0.5 mm, LM: 2.5 mm) as determined by reference to the mouse brain atlas by Franklin and Paxinos. Paxinos, 2001. The dura mater was surgically exposed, and a 10 μl-Hamilton syringe with a 26S-gauge beveled needle was lowered into the left cerebral hemisphere up to the depth of 3 mm and 5 μl of tumor cells was slowly infused (0.5 μl/min). The needle was left in place for 5 minutes to prevent reflux and then was slowly removed. The skin was closed with wound clips. The mice recovered from anesthesia and surgery in a warm environment and were not returned to their cages until motor activity returned. Cages were placed on top of a heating pad to minimize the loss of body heat during the recovery. The mice were monitored postoperatively at least twice a day for 5 days or until recovery was complete.\nBioluminescence imaging of mouse: After intracerebral injection of lymphoma cells, all the mice were subjected to bioluminesence imaging (“BLI”) twice a week starting at day-4 post-intracerebral injection to monitor the real-time in vivo tumor growth. BLI was conducted using a Xenogen Lumina optical imaging system (Caliper Life Sciences, Hopkinton, Mass.). Mice were anesthetized with isofluorane before intraperitoneal injections of luciferin at a dose of 150 mg/kg, providing a saturating substrate concentration for luciferase enzyme. Peak luminescent signals were recorded 10 minutes after luciferin injection. Regions of interest encompassing the intracranial area of signal were defined using Living Image software (Xenogen), and the total photons/s/steradian/cm^2 was recorded.\nIn vivo preclinical evaluation of 4-amino-2-(2,6-dioxo-piperidine-3-yl)-isoindoline-1,3-dione in murine CNS lymphoma models: Mice were imaged 4 days after intracerebral injection and were distributed among different treatment groups with equivalent average BLI signal. Real time tumor growth was monitored by BLI. Tumor growth and survival data were analyzed for statistical difference between the groups. Mice were assigned to four experimental groups and one vehicle control group in Raji model. Mice in experimental groups received 4-amino-2-(2,6-dioxo-piperidine-3-yl)-isoindoline-1,3-dione 0.3 mg/kg, 3 mg/kg, 10 mg/kg, or 30 mg/kg by oral gavage daily for 28 days. […]"}, "[4]": {"system": "human monocyte U937 cells", "assay": "Phagocytosis assay, human monocyte U937 cells", "assay_type": "cell-based", "conditions": "3 or 10 ug/ml, 48 hours, P<0.05 vs control", "method": "as §1"}, "[5]": {"conditions": "listed as 4-amino-2-(2,6-dioxo-piperidine-3-yl)-isoindoline-1,3-dione"}},
  "data": [
    {"smiles": "Nc1cccc2c1C(=O)N(C1CCC(=O)NC1=O)C2=O", "note": "(stereo not drawn) [Pomalidomide, 4-amino-2-(2,6-dioxo-piperidine-3-yl)-isoindoline-1,3-dione]", "values": [
      {"measurement": "M2 polarization of microglia cells (FXIIIA, pSTAT6)", "setting": "[1]", "result": "reversed"},
      {"measurement": "M2 polarization of microglia cells (FXIIIA, pSTAT6)", "setting": "[1]; [5]", "result": "M2 polarization was not seen"},
      {"measurement": "polarization status of microglia cells (iNOS, pSTAT1)", "setting": "[1]", "result": "from M2 to M1"},
      {"measurement": "polarization status of microglia cells (iNOS, pSTAT1)", "setting": "[1]; [5]", "result": "became M1-polarized"},
      {"measurement": "phagocytic activity", "setting": "[2]", "result": "significantly increased"},
      {"measurement": "median survival", "setting": "[3]; 3 mg/kg oral gavage daily for 28 days", "result": 32, "unit": "days"},
      {"measurement": "median survival", "setting": "[3]; 10 mg/kg oral gavage daily for 28 days", "result": 37, "unit": "days"},
      {"measurement": "median survival", "setting": "[3]; 30 mg/kg oral gavage daily for 28 days", "result": 40, "unit": "days"},
      {"measurement": "in vivo tumor growth (luminescence signal) vs control", "setting": "[3]; OCI-LY10 model, 3, 10 and 30 mg/kg groups", "result": "significantly slower"},
      {"measurement": "in vivo tumor growth (luminescence signal) vs control", "setting": "[3]; OCI-LY10 model, 3, 10 and 30 mg/kg groups, listed as 4-amino-2-(2,6-dioxo-piperidine-3-yl)-isoindoline-1,3-dione", "result": "reduction of tumor growth"},
      {"measurement": "survival, Kaplan-Meier analysis vs control", "setting": "[3]; OCI-LY10 model, 3, 10 and 30 mg/kg groups, p<0.05, n=8", "result": "prolongation of survival"},
      {"measurement": "phagocytic activity", "setting": "[4]", "result": "significantly increased"}
    ]}
  ]
}
